Data from patent publication EP1743641A1, “Use of substituted pyrazoline compounds for the treatment of food disorders, including obesity or metabolic syndrome in patients with developed diabetes” (LABORATORIOS DEL DR. ESTEVE, S.A., priority 2005, dated 2007).
One block for each compound: values may come before it.

What was measured:
CB2-Receptor = target: T1, CB2-Receptor (Homo sapiens, UniProt P34972); assay: In-vitro determination of affinity to CB2 receptor (radioligand [3H]-CP55940); assay type: binding
T1 construct: purchased Receptor Biology, Inc
T1 sequence (P34972 whole entry): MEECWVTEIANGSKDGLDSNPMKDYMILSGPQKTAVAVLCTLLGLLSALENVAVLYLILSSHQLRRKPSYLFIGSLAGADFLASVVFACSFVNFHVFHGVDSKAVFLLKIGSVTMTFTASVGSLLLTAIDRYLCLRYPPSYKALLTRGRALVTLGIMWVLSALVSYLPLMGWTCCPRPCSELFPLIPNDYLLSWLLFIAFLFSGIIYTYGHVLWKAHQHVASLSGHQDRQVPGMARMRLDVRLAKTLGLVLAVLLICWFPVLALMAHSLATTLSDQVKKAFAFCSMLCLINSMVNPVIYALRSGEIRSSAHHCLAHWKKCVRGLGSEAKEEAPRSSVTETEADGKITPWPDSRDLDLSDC
Description: (§1) The in-vitro determination of the affinity of the substituted pyrazoline compounds to CB1/CB2-Rezeptors is carried out as described in the publication of Ruth A. Ross, Heather C. Brockie et al., "Agonist-inverse agonist characterization at CB1 and CB2 cannabinoid receptors of L-759633, L759656 and AM630", British Journal of Pharmacology, 126, 665-672, (1999), whereby the transfected human CB1 and CB2 receptors of Receptor Biology, Inc. are used. The radioligand used for both receptors is [^3H]-CP55940. The respective parts of the description is hereby incorporated by reference and forms part of the present disclosure. The affinity of the inventive substituted pyrazoline compounds to CB1/CB2 receptors was determined as described above.

CB1-Receptor = target: T2, CB1-Receptor (Homo sapiens, UniProt P21554); assay: In-vitro determination of affinity to CB1 receptor (radioligand [3H]-CP55940); assay type: binding
T2 construct: purchased Receptor Biology, Inc
T2 sequence (P21554 whole entry): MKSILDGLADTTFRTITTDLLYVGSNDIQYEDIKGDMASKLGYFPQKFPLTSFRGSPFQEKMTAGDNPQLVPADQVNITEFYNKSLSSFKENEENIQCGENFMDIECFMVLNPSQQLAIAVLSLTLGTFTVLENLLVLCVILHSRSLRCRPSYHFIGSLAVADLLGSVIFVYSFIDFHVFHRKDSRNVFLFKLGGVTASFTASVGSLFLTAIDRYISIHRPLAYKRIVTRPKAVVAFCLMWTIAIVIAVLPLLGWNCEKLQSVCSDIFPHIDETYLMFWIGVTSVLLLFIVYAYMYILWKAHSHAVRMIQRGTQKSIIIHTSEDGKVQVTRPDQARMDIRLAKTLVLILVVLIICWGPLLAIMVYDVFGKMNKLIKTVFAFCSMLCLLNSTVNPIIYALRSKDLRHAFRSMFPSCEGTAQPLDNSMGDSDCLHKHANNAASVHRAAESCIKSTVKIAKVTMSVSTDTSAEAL
Description: as §1, with “disclosure.” for “disclosure. The affinity of the inventive substituted pyrazoline compounds to CB1/CB2 receptors was determined as described above.”
The affinity of the inventive substituted pyrazoline compounds to CB1/CB2 receptors was determined as described above.

cannabinoid receptors [1] = assay: Mouse tetrad model, antagonistic effect against Win 55212-2; assay type: in vivo, Male NMRI mice; set-up: unit not given here; settings: 5 mg/kg i.v. prior to Win 55212-2 in a dose of 1,25mg/kg i.v., mice
Source text: (§2) Substances with affinity for cannabinoid receptors are known to produce a wide range of pharmacological effects. It is also known that intravenous administration of a substance with affinity for cannabinoid receptors in mice produces analgesia , hypothermia, sedation and catalepsy. Individually, none of these effects can be considered as proof that a tested substance has affinity for cannabinoid-receptors, since all of these effects are common for various classes of centrally active agents. However, substances, which show all of these effects, i.e. substances that are active in this so-called tetrad model are considered to have affinity for the cannabinoid receptors. It has further been shown that cannabinoid receptor antagonists are higly effective in blocking the effects of a cannabinoid agonist in the mouse tetrad model.
(§3) The tetrad model is described, for example, in the publication of A. C. Howlett et al, International Union of Pharmacology XXVII. Classification of Cannabinoid e cept σs, Pharmacol Rev 54, 161-202 , 2002 and David R. Compton et al., "In-vivo Characterization of a Specific Cannabinoid Receptor Antagonist (SR141716A) :Inhibition of Tetrahydrocannbinol- induced Responses and Apparent Agonist Activity", J. Pharmacol. Exp. Ther. 277, 2, 586-594, 1996. The corresponding parts of the description are hereby incorporated by reference.
(§4) Male NMRI mice with a weight of 20-30 g (Harlan, Barcelona, Spain) are used in all of the following experiments.
(§5) Before testing in the behavioral procedures given below, mice are acclimatized to the experimental setting. Pre-Treatment control values are determined for analgesia hot plate latency (in seconds), rectal temperature, sedation and catalepsy.
(§6) In order to determine the agonistic activty of the substance to be tested, the mice are injected intravenously with the substance to be tested or the vehicle alone. 15 minutes after injection, latency in hot plate analgesia is measured. Rectal temperature, sedation and catalepsy are measured 20 minutes after injection.
In order to determine the antagonistic activity the identical procedure is used as for the determination of the agonistic effects, but with the difference that the substance to be evaluated for its antagonistic activity is injectected 5 minutes before the intravenous injection of 1.25 mg/kg Win-55,212 a known cannabinoid-receptor agonist.
(§7) The hot plate analgesia is determined according to the method described in Woolfe D. et al. "The evaluation of analgesic action of pethidine hydrochloride (Demerol)", J. Pharmacol. Exp. Ther. 80, 300-307,1944. The respective description is hereby incorporated by reference and forms part of the present disclosure.
(§8) The mice are placed on a hot plate (Harvard Analgesimeter) at 55 ± 0.5 °C until they show a painful sensation by licking their paws or jumping and the time for these sensations to occur is recorded. This reading is considered the basal value (B). The maximum time limit the mice are allowed to remain on the hot plate in absence of any painful response is 40 seconds in order to prevent skin damage. This period is called the cut-off time (PC).
(§9) Fifteen minuts after the administration of the substance to be tested, the mice are again placed on the hot plate and the afore described procedure is repeated. This period is called the post-treatment reading (PT).
(§10) %MPEof Analgesia = (PT−B)/(PC−B) × 100 [formula]
(§11) Sedation and ataxia is determined according to the method described in Desmet L. K. C. et al. "Anticonvulsive properties of Cinarizine and Flunarizine in Rats and Mice", Arzneim. -Forsch. (Frug Res) 25, 9, 1975. The respective description is hereby incorporated by reference and forms part of the present disclosure.
(§12) The chosen scoring system is
%of sedation = arithmetic mean/3 × 100 [formula] […]

cannabinoid receptors [2] = assay: Mouse tetrad model, agonistic effect; assay type: in vivo, Male NMRI mice; set-up: key to Agonistic effect D: Sedation: % of sedation = arithmetic mean score/3 × 100; settings: 5 mg/kg i.v., mice
Source text: as §2, §3, §4, §5, §6, §7, §8, §9, §10, §11, §12
%of sedation = arithmetic mean/3 × 100 [formula]
Hypothermia is determined according to the method described in David R. Compton et al. "In-vivo Characterization of a Specific Cannabinoid Receptor Antagonist (SR141716A) Inhibition of Tetrahydrocannbinol- induced Responses and Apparent Agonist Activity", J. Pharmacol Exp Ther. 277 , 2, 586-594, 1996. The respective description is hereby incorporated by reference and forms part of the present disclosure. […]

Compound: O=C(NN1CCCCC1)C1=NN(c2ccc(Cl)cc2Cl)C(c2ccc(Cl)cc2)C1 (stereo not shown) [Example 1, N-piperidinyl-5-(4-chlorophenyl)-1-(2,4-dichlorophenyl)-4,5-dihydro-1H-pyrazole-3-carboxamide]
- Ki (CB2-Receptor): > 1000 nM
- Ki (CB1-Receptor): < 25 nM
- Antagonistic Effect A: Hot-Plate test (cannabinoid receptors [1]): 74
- Antagonistic Effect B: Hypothermia (cannabinoid receptors [1]): 100
- Antagonistic Effect C: Catalepsy (cannabinoid receptors [1]): 100
- Antagonistic Effect D: Sedation (cannabinoid receptors [1]): 100
- Agonistic effect A: Hot-Plate test (cannabinoid receptors [2]): 0
- Agonistic effect B: Hypothermia (cannabinoid receptors [2]): 0
- Agonistic effect C: Catalepsy (cannabinoid receptors [2]): 0
- Agonistic effect D: Sedation (cannabinoid receptors [2]): 0

- Ki (CB2-Receptor): ~1000 nM
Compound: O=C(C1=NN(c2ccc(Cl)cc2Cl)C(c2ccc(Cl)cc2)C1)N1CCCCC1 (stereo not shown) [Example 5, [5-(4-Chloro-phenyl)-1-(2,4-dichloro-phenyl)-4,5-dihydro-1H-pyrazol-3-yl]-piperidin-1-yl-methanone]
- Antagonistic Effect A: Hot-Plate test (cannabinoid receptors [1]): 50
- Antagonistic Effect B: Hypothermia (cannabinoid receptors [1]): 40
- Antagonistic Effect C: Catalepsy (cannabinoid receptors [1]): 20
- Antagonistic Effect D: Sedation (cannabinoid receptors [1]): 20
- Agonistic effect A: Hot-Plate test (cannabinoid receptors [2]): 0
- Agonistic effect B: Hypothermia (cannabinoid receptors [2]): 50
- Agonistic effect C: Catalepsy (cannabinoid receptors [2]): 0
- Agonistic effect D: Sedation (cannabinoid receptors [2]): 0
